The test system of one data set is E. coli. Put plainly: Assay for antimicrobial activity: test solution incubated with 10^6 CFUs bacteria, neutralised, plated, growth assessed after 24 hours. It is filed as cell-based. The arrangement: key to Growth of E. coli 24 hrs after treatment, 1:100 dilution of bacterial reaction mixture / Growth of E. coli 24 hrs after treatment, 1:1000 dilution of bacterial reaction mixture / Growth of E. coli 24 hrs after treatment, 1:10 dilution of bacterial reaction mixture: + plates with microbial growth; − for plates that had no growth. Particulars: for Growth of E. coli 24 hrs after treatment, 1:1000 dilution of bacterial reaction mixture / Growth of E. coli 24 hrs after treatment, 1:100 dilution of bacterial reaction mixture / Growth of E. coli 24 hrs after treatment, 1:10 dilution of bacterial reaction mixture: 10^6 CFUs, 30 min RT; for Concentration at which growth of E. coli is inhibited: 30 min treatment. As to the method: • APG: AG6210 (Akzo Nobel Surface Chemistry AB) 60% aqueous solution of a 60:40 mixture of decyl-β-D-glucopyranoside and octyl-β-D-glucopyranoside • Decyl-β-D-glucopyranoside—EC number: 259-218-1; CAS number: 54549-25-6 • Octyl-β-D-glucopyranoside—EC number: 414-420-0; CAS number: 108081-06-7 • ε-polylysine: Zhengzhou Bainafo Co., Ltd. […] L(+)-lactic acid. […] CAS number: 79-33-4 • Neutraliser (NF): 30 ml Tween 80, 30 g saponine, 1 g histidine, 1 g cysteine dissolved in 1000 ml water; sterilised by autoclaving. • RBT 24/7: Residual Barrier Technology. Proprietary antimicrobial surface sanitizer. • Culture media: Oxoid plate count agar (CM0463): […]

For data set [1] the following is noted: at 20° C.; cited from earlier work.
[2] abbreviates: acid(s) alone, printed as cannot inhibit growth when used at up to, combined concentration for lactic + citric.
Where [3] appears, read: Table 1: L(+)-lactic acid alone, listed as 250 mM L(+)-Lactic Acid.
[4] abbreviates: Table 1: L(+)-lactic acid alone, listed as 500 mM L(+)-Lactic Acid.
[5] abbreviates: Table 1: L(+)-lactic acid alone, listed as 1M L(+)-Lactic Acid, 1M L(+)-lactic acid.
The mark [6] stands for this setting: Table 1: L(+)-lactic acid alone, listed as 2M L(+)-Lactic Acid, 2M L(+)-lactic acid.

The values below come from patent publication US20190075794A1, “BIODEGRADABLE ANTIMICROBIAL COMPOSITIONS AND USES THEREOF TO COMBAT MICROORGANISMS” (IPABC LTD, priority 2015, published 2019).

In the case of `O=C(O)CC(O)(CC(=O)O)C(=O)O` [Citric Acid, Citric acid], the “Growth of E. coli 24 hrs after treatment, 1:1000 dilution of bacterial reaction mixture” value in the data set on E. coli (Table 2: citric acid alone, listed as 50 mM Citric Acid) is reported as “+”. For the same compound, the “Concentration at which growth of E. coli is inhibited” value in the data set with E. coli (setting [2]) was > 50 mM.
For `CCCCCCCCCCO[C@@H]1O[C@H](CO)[C@@H](O)[C@H](O)[C@H]1O` [decylglucoside, Decyl-β-D-glucopyranoside], the CMC result in data set [1] is on record as “approximately 300 ppm”.
Turning to `C[C@H](O)C(=O)O` [L(+)-Lactic Acid, L(+)-lactic acid], the “Growth of E. coli 24 hrs after treatment, 1:100 dilution of bacterial reaction mixture” value in the data set on E. coli (Table 1: L(+)-lactic acid alone, listed as 100 mM L(+)-Lactic Acid) was “+”; in the data set with E. coli (setting [3]), “+”; with E. coli (setting [4]), “+”; in the data set with E. coli (setting [5]) it was “+”; in the data set with E. coli (setting [6]) it was “−”. For the same compound, the “Growth of E. coli 24 hrs after treatment, 1:1000 dilution of bacterial reaction mixture” value is listed as “+” in the data set with E. coli (Table 1: L(+)-lactic acid alone, listed as 100 mM L(+)-Lactic Acid, 100 mM L(+)-lactic acid); “−” in the data set on E. coli (Table 1: L(+)-lactic acid alone, listed as 250 mM L(+)-Lactic Acid, 250 mM L(+)-lactic acid); “−” in the data set with E. coli (Table 1: L(+)-lactic acid alone, listed as 1M L(+)-Lactic Acid); “−” in the data set on E. coli (Table 1: L(+)-lactic acid alone, listed as 2M L(+)-Lactic Acid). In addition, the “Growth of E. coli 24 hrs after treatment, 1:10 dilution of bacterial reaction mixture” value in the data set on E. coli (setting [3]) is “+”; in the data set on E. coli (setting [4]), “+”; in the data set with E. coli (setting [5]) it was “+”; in the data set on E. coli (setting [6]) it was “−”. The “Concentration at which growth of E. coli is inhibited” value in the data set on E. coli (setting [2]) is reported as > 40 mM; in the data set with E. coli (lactic acid alone), “at least 1 M”.
